# Measurements as given in patent US12357695B2, “Peptides and nanoparticles for intracellular delivery of molecules” (AADIGEN, LLC, priority 2019, dated 2025).
# Entries after “also recorded” stand apart in the source; their conditions may differ.
# Experiments:
# mice [1] = test: In vivo delivery of Luciferase mRNA, intramuscular administration, bioluminescence imaging; conditions: IM, Luc mRNA
# Experimental: FIGS. 5A-5B show the potency of ADGN-peptide variants for in vivo delivery of Luciferase mRNA via intramuscular administration in mice. ADGN-peptide/luc mRNA particles containing 2.5 μg mRNA were formed in sterile water, and then diluted in 5% sucrose. Mice received […] injection o 25 μl ADGN-peptide/mRNA complexes. mRNA LUC expression was monitored by bioluminescence imaging after 12 h, 24 h and 48h (A). FIG. 5B show bioluminescence imaging at 24 hr in control and treated groups.
# (§1) Stable ADGN-peptides/mRNA were evaluated for in vivo delivery of Luciferase mRNA via intravenous and intramuscular administrations. Animals were treated with single dose of 5 moU modified Luc mRNA of 5 μg. 5 moU modified Luc mRNA (5 μg) in sterile water (GIBCO) were mixed with ADGN peptide (sterile water), volume for each sample was adjusted to 100 μl, with sterile water containing 5% Sucrose. Samples were mixed gently with vortex for 1 minute at low speed and incubated for 30 min at room temperature. Samples were filtered on 0.45 μm PES filters prior administration. For IV administration Mice received 100 μl intravenous (IV) injection of either ADGN-106/mRNA, ADGN-100/mRNA, ADGN-106RI/mRNA, ADGN-100-stearyl/mRNA, ADGN-100Hydro1/mRNA, ADGN-100Hydro2 or ADGN/mRNA complexes containing 10% of ADGN-100PEG (3 animals per group). As control, mice from group 3 (2 animals per group) received IV injection of 100 μl of naked 5 moU modified Luc mRNA (5 μg). For IM administration, mice received 25 μl (5 μg mRNA) IV injection of either ADGN-100/mRNA, ADGN-106/mRNA, ADGN-106RI/mRNA or ADGN/mRNA complexes containing 10% or 20% of ADGN-100PEG (2 animals per group). As control, mice from group 3 (2 animals per group) received IV injection of 25 μl of naked 5 moU modified Luc mRNA (5 μg).
# (§2) mRNA Luc expression was monitored by bioluminescence. Bioluminescence imaging was performed after 12, 24, 48 and 72 hrs. Mice received an i.p. injection of 150 μg/g luciferin for noninvasive bioluminescence imaging (IVIS Kinetic; PerkinElmer, Waltham, MA, USA).
# mice or rat models = test: Summary of cargo delivery to targeted organ (Table 1); assay type: in vivo; conditions: cargoes and route (IV, IM, SQ, NB) per peptide as listed in Table 1
# Text: Table 1 lists a summary of cell-penetrating peptides that have been proven successful in delivering various cargo molecules to on or more targeted organ (e.g., by intravenous (IV), intramuscular (IM), or subcutaneous (SQ) administration, or intratraccheal instillation or nebulization (NB)) in mice or rat models.
# mice [2] = test: In vivo delivery of Luciferase mRNA, intravenous administration, bioluminescence imaging; conditions: 5 μg Luc mRNA, single dose
# Experimental: FIGS. 4A-4D show the potency of ADGN-peptide variants for in vivo delivery of Luciferase mRNA via intravenous administration in mice. ADGN-peptide/luc mRNA particles containing 5 μg mRNA were formed in sterile water, and then diluted in 5% sucrose. Mice received IV injection of 100 μl ADGN-peptide/mRNA complexes. mRNA LUC expression was monitored by bioluminescence imaging after 12 h, 24 h, 48 h and 72 h. FIG. 4B show bioluminescence imaging at 24 hr in control and treated groups. Semi-quantitative data of luciferase signal in the liver (C) and in the lung (D) were obtained using the manufacturer's software (Living Image; PerkinElmer). Results were then expressed as values relative to day 0.
# as §1, §2
# mice [3] = test: In vivo delivery of pGL4 plasmid DNA, intravenous administration, bioluminescence imaging; conditions: 5 μg pGL4 plasmid
# Experimental: FIGS. 6A-6C show the potency of ADGN-peptide variants for in vivo delivery of Luciferase expressing plasmid pGL4 via intravenous administration in mice. ADGN-peptide/pGL4 particles containing 5 μg plasmid DNA were formed in sterile water, and then diluted in 5% sucrose. Mice received IV injection of 100 μl ADGN-peptide/plasmid complexes. pGL4 Luciferase expression was monitored by bioluminescence imaging after 12 h, 24h, 48h and 72h. […] Results were then expressed as values relative to day 0.
# (§3) Stable ADGN-peptides/pGL4.11 DNA were evaluated for in vivo delivery of Luciferase mRNA via intravenous and intramuscular administrations. Animals were treated with single dose of pGL4.11 plasmid DNA of 5 μg. via IV and 2.5 μg via intramuscular administration.
# pGL4.11 DNA plasmid (5 μg) in sterile water (GIBCO) were mixed with ADGN peptide (sterile water), volume for each sample was adjusted to 100 μl, with sterile water containing 5% Sucrose. Samples were mixed gently with vortex for 1 minute at low speed and incubated for 30 min at room temperature. Samples were filtered on 0.45 μm PES filters prior administration. For IV administration Mice received 100 μl IV injection of either ADGN-106/pGL4, ADGN-100/pGL4, ADGN-100RI/pGL4, ADGN-100-stearyl/PGL4, ADGN-100Hydro1/PGL4, ADGN-100Hydro2/PGL4, ADGN100 Hydro6/PGL4 or ADGN/PGL4 complexes containing 10% or 20% of ADGN-100PEG (3 animals per group). As control, mice from group 3 (2 animals per group) received IV injection of 100 μl of naked pGL4 plasmids (5 μg).
# (§4) Luciferase expression was monitored by bioluminescence. Bioluminescence imaging was performed after 12, 24, 48 and 72 hrs. Mice received an i.p. injection of 150 μg/g luciferin for noninvasive bioluminescence imaging (IVIS Kinetic; PerkinElmer, Waltham, MA, USA).
# mice [4] = test: In vivo delivery of pGL4 plasmid DNA, intramuscular administration, bioluminescence imaging; conditions: IM, 2.5 μg pGL4 plasmid
# Experimental: FIGS. 7A-7B show the potency of ADGN-peptide variants for in vivo delivery of Luciferase expressing plasmid pGL4 via intramuscular administration in mice. ADGN-peptide/pGL4 luc particles containing 2.5 μg plasmid DNA were formed in sterile water, and then diluted in 5% sucrose. Mice received IV injection of 25 μl ADGN-peptide/pGL4 complexes. Luciferase expression was monitored by bioluminescence imaging after 12 h, 24 h and 48h (A). FIG. 7B show bioluminescence imaging at 24 hr in control and treated groups.
# as §3
# For IM administration, mice received 25 μl (2.5 μg of pGL4 plasmid) IV injection of either ADGN-100/PGL4, ADGN-106/PGL4, ADGN-100RI/PGL4, ADGN-100hydro1/PGL4, ADGN-100hydro6/PGL4, ADGN-100 stearyl/PGL4 or ADGN-100/PGL4 complexes containing 10% or 20% of ADGN-100PEG (2 animals per group). As control, mice from group 3 (2 animals per group) received IV injection of 25 μl of naked PGL4 plasmid (2.5 μg).
# as §4
Substance,increase of luciferase expression in the muscle / efficiency relative to ADGN-106 (mice [1]) [fold],luciferase expression (mice [1]),Targeted Organ (mice or rat models),mRNA / luciferase expression and tissues (mice [2]),luciferase expression and tissues (mice [3]),luciferase expression (mice [4])
Ac-GYVS-Aun(CH2)6-ALWRALWRLWRSLWRLLWKA-NH2 [ADGN-106 hydro-6],4,mediated Luciferase expression following intramuscular (IM) administration,Tumor/Pancreas/ and Lung,,,
Ac-YIGSR-(G)4-KWRSALWRWRLWRVRSWSR-NH2 (Ac-YIGSRGGGGKWRSALWRWRLWRVRSWSR-NH2) [ADGN-100-Hydro-1],,,Lung/Kidney/; also recorded: Liver,negligible luciferase expression,negligible luciferase expression,no significant expression
